Earlier results as cited in PMC10459069, “Comparative Serum and Brain Pharmacokinetics of Quercetin after Oral and Nasal Administration to Rats as Lyophilized Complexes with β-Cyclodextrin Derivatives and Their Blends with Mannitol/Lecithin Microparticles” (Pharmaceutics, 2023).

Columns and labels:
[1] = design: method as in PMID 19720149; settings: mice, 6-week treatment with Que-enriched diets (2 mg/g diet)
[2] = rats
[3] = reference not given

Row | brain levels [1] [µg/g] | Cmax/dose ratio ([2]; intragastric administration of 100 mg/kg of pure Que, ref Yang et al. (2016) 46) | levels in the brain ([2]; single oral administration of Que) | logP [3] | SMILES
1 | 0.085 | 0.03 | did not reveal measurable levels |  | O=c1c(O)c(-c2ccc(O)c(O)c2)oc2cc(O)cc(O)c12 [Que, Quercetin]
2 |  |  |  | −3.4 | OC[C@@H](O)[C@@H](O)[C@H](O)[C@H](O)CO [mannitol, Mannitol]
